# Source: PubChem BioAssay AID1794824
# Target: Sodium- and chloride-dependent taurine transporter (Homo sapiens) (UniProt P31641)
# Assay: SLC6A6 taurine transporter substrate activity, dose response, cell-based, membrane potential dye, HEK-293, SLC6A6 overexpression (AID 1794824)
# Settings: HEK-293 SLC6A6 OE, FLIPR membrane potential dye
# Sodium- and chloride-dependent taurine transporter (Homo sapiens), sequence (P31641 whole entry, looked up): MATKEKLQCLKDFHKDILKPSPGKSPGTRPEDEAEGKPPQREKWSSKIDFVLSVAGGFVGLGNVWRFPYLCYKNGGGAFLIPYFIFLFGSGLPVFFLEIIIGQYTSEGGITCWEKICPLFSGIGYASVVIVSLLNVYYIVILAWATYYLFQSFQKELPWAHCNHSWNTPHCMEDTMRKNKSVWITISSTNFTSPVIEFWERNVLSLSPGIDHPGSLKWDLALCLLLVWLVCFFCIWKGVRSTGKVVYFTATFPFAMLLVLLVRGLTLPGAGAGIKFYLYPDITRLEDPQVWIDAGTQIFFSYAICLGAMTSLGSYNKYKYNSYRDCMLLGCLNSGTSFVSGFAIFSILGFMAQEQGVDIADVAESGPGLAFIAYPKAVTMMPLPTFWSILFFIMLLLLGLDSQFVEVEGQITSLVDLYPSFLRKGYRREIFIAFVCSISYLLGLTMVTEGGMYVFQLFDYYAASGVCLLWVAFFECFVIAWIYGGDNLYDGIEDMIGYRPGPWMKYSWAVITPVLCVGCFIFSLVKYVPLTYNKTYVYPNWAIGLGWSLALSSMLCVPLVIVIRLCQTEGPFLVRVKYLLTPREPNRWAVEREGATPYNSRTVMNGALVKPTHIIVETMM
row,EC50 [µM],Structure (SMILES)
1,10,NCCS(=O)(=O)O
2,354,NCCCC(=O)O
